Assays:
[1] = Loss of pimaricin over time in water as a function of O2 content and complex with β-cyclodextrin (Background Example 3); type: physicochemical
Description: (§1) Such reactions are a consequence of the formation of reactive oxygen species (ROS) wherein oxygen merely serves as an intermediate in the transfer of electrons in REDOX type reactions which ultimately result in the degradation of more complex molecules such as pimaricin. In this regard, O2 behaves similar to a catalyst. Similar to many reactions involving catalyst, the amount of oxygen required to drive in such reactions is very small. In this regard, it is of interest to evaluate the stability of pimaricin in solution under differing conditions of oxygen tension. Clearly, it is also of interest to establish whether the formation of a complex between pimaricin and β-cyclodextrin serves to stabilize pimaricin from degradation by reaction with oxygen. […] Briefly, pimaricin yields a very distinctive UV-visible spectrum with 3 separate absorption maxima. As pimaricin degrades, the peak heights diminish. Degradation can be tracked through the diminishing peak height of any single peak maxima or through changes in relative peak height.
Given a method to monitor the changes in concentration of pimaricin, it is then possible to establish whether pimaricin degrades differently as a function of variables such as initial oxygen tension of solution. Background Example 3, FIG. 3 captures results for the degradation of pimaricin over a time period of several months as a function of initial oxygen tension and the presence or absence of a complex between pimaricin and β (beta) cyclodextrin.
The initial concentration of pimaricin in complex ≧400 ppm and so pimaricin is fully bound to β-cyclodextrin. Measurements in distilled water at neutral pH and 25° C. Thus, regardless of the presence or absence of a complex with cyclodextrin, pimaricin is subject to degradation over time when in solution.

[2] = test system: pooled inoculum of strains of Saccharomyces Brettanomyces and Zygosaccharomyces; experiment: 16 week spoilage trial in carbonated mock grape beverage (3.7 and 4.5 volumes CO2), Example 1; type: cell-based; conditions: 1.1 ppm pimaricin, no cyclodextrin; for first note of spoilage: 25° C.; for incidence of spoilage (frequency, 1=100%): after 100 days
Procedure: A 16 week trial was conducted with a mock grape 12 Brix 2% grape juice mock glass “pony” 9.8 oz. bottle. Beverages were carbonated to 3.7 and 4.5 volumes. Five containers of each CO2 level were not inoculated and served as negative controls. Five containers of each CO2 level were inoculated with a pooled inoculum of strains of Saccharomyces Brettanomyces and Zygosaccharomyces such that an initial cell density of 100 organisms per milliliter was achieved. These samples served as positive controls. Half of the remaining containers received the same inoculum and were also dosed with pimaricin to a concentration of 1.1 mg 1^−1 (mg per liter or mg/L). The remaining containers were dosed with pimaricin in complex with β-cyclodextrin in a manner that yielded a final concentration of pimaricin of 0.8 ppm. All samples were then held at 25° C. for the duration of the study. During the course of the study, pimaricin concentration was established in samples employing UV-Visible spectroscopy.

[3] = Pimaricin concentration over time in Example 1 samples by UV-Visible spectroscopy; type: physicochemical; conditions: pimaricin in the absence of cyclodextrin; initial 1.1 ppm; carbonated mock grape beverage, 25° C.
Description: as §1
A 16 week trial was conducted with a mock grape 12 Brix 2% grape juice mock glass “pony” 9.8 oz. bottle. Beverages were carbonated to 3.7 and 4.5 volumes. Five containers of each CO2 level were not inoculated and served as negative controls. […]

spoilage organisms = experiment: Degradation kinetic of pimaricin and onset of spoilage in carbonated beverage (Background Example 4); type: cell-based
Description: In the absence of analytical data about the stability of pimaricin in solution, the interpretation of the data about the stability of product over time can be interpreted in one of two ways. Either no degradation of pimaricin occurred and product spoiled because of the outgrowth of those few organisms that were tolerant to the quantity of pimaricin present or spoilage occurred as a consequence of the survival and then outgrowth of organisms as a consequence of the degradation of pimaricin below some critical concentration. A strong argument for the latter is offered in Background Example 4, FIG. 4. Herein, the degradation of pimaricin is tracked from initial concentrations of 13 and 25 ppm in parallel with previously established incidence of spoilage in samples that initially contain 13 and 25 ppm. […] Product contains in excess of 2000 ppb O2.
In the presence of structurally intact pimaricin, spoilage organisms are inhibited from growth. Once the integrity of the bulk pimaricin is compromised, the organisms are able to grow. Regardless of initial concentration, pimaricin in 3.7 volume CO2 beverage will degrade at the same rate. Commonly, carbonated beverages contain a substantial amount of oxygen (>3500 ppb). Given a starting concentration of 13.5 ppm, the degradation of pimaricin is such that the concentration of pimaricin falls to below the minimum inhibitory concentration ( . . . ) at around 80 days. At this time, spoilage organisms begin to grow and induce spoilage (χ).

(IR,3S,5R,7R,8E,12R,14E,16E,18E,20E,22R,24S,25R,26S)-{[3S,4S,5S,6R)-4-amino-3,5-dihydroxy-6-methyloxan-2-yl]oxy}-1,3,26 trihydroxy-12-methyl-10-oxo-6,11,28-trioxatricyclo[22.3.1.0^5,7]octacosa-8,14,16,18,20 pentaene-25-carboxylic acid [pimaricin]
effect of lowering oxygen concentration on rate of degradation ([1]; not complexed, oxygen lowered to 3500 ppb): does not measurably impact the rate of degradation | degradation over time ([1]; not complexed, water containing oxygen in excess of 8500 ppb): degrades quite quickly | rate of degradation versus water containing 8300 ppm O2 ([1]; pimaricin alone in water containing only, neutral pH, 25° C.): about the same rate | rate of degradation versus pimaricin complex β-cyclodextrin ([1]; water containing 8300 ppb O2, distilled water, neutral pH, 25° C.): slightly faster rate | first note of spoilage ([2]; 3.7 volumes CO2): 20 days | first note of spoilage ([2]; 4.5 volumes CO2): 20 days | incidence of spoilage (frequency, 1=100%) ([2]; 3.7 volumes CO2): 0.6 | incidence of spoilage (frequency, 1=100%) ([2]; 4.5 volumes CO2): 0.6 | half-life of degradation [3]: about 35 days | critical concentration of pimaricin (no spoilage above it) (spoilage organisms; 3.7 volume CO2 beverage): about 2 ppm | incubation time before spoilage (spoilage organisms; initial concentration 13 ppm pimaricin, carbonated beverage 3.6 volumes CO2): > 80 days | incidence of spoilage (spoilage organisms; initial concentration 13 ppm pimaricin, carbonated beverage 3.6 volumes CO2, in excess of 2000 ppb O2): 33% | pimaricin concentration below which spoilage ensues (spoilage organisms; intersect of time of onset of spoilage and degradation plot for 13 ppm pimaricin): 1.5-2 ppm | spoilage among samples evaluated (spoilage organisms; product containing 25 ppm pimaricin, carbonated beverage 3.6 volumes CO2): did not suffer any spoilage | time at which pimaricin concentration falls below the minimum inhibitory concentration (spoilage organisms; starting concentration 13.5 ppm, 3.7 volume CO2 beverage): around 80 days | spoilage from outgrowth of previously inoculated organisms (spoilage organisms; starting concentration 25 ppm pimaricin, 3.7 volume CO2 beverage): no ensuing spoilage

Source: patent US20150335055A1, “BEVERAGE PR[…] BASED ON PIMARICIN AND HEADSPACE GAS” (PEPSICO, INC., priority 2013, published 2015)
